Entries after “also recorded” stand apart in the source; their conditions may differ.

Holding throughout (type): in vivo, human cells in mice
The test system of data set [1] is A498 human kidney cancer cells. Briefly: A498 kidney tumour growth in SCID mice (3.9). How it is done:
Treatments lasted for 14 days thereafter. Antitumour activities were estimated by the inhibition of tumour volume, which was measured with a caliper on four different occasions over the treatment period. Each point represents mean tumour volume calculated from 5 animals per experimental group. […] Control animals (control) received saline alone for the same period. At the end of the treatments, the animals were sacrificed, tumours were excised and their weights were measured. Each bar represents mean tumour weight calculated from 6 animals per experimental group. […] Treatments lasted for 24 days thereafter. Antitumour activities were estimated by the inhibition of tumour volume, which was measured with a caliper at two-day intervals over the treatment period. Each point represents mean tumour volume calculated from 4 animals per experimental group. […] Treatments lasted for 24 days thereafter. Antitumour activities were estimated by the inhibition of tumour volume, which was measured with a caliper at two-day intervals over the treatment period. Each point represents mean tumour volume calculated from 4 animals per experimental group. […] Each point represents mean tumour volume calculated from 5 animals per experimental group. […] Antitumour activities were estimated by the inhibition of tumour volume, which was measured with a caliper on four different occasions over 16-day period. […]

In data set [2] the test system is Caki renal tumour xenografts. Briefly: Caki renal tumour xenografts in SCID/beige mice (immune stimulation). Particulars: Caki renal tumour xenografts in SCID/beige mice (lack B, T and NK cell function). The protocol: To directly determine whether SEQ ID NO:1 treatment results in CpG stimulation of NK-mediated anti-tumour activity, the efficacy of SEQ ID NO:1 on human tumour xenografts in SCID/beige mice was assessed (FIG. 32). SCID/beige mice lack B, T and NK cell function and as such these mice cannot mount a significant innate or acquired immune response.

For data set [3], the system named is Hela S3 human cervix epitheloid carcinoma cells. Briefly: Hela S3 hydroxyurea resistant cervix carcinoma xenograft in SCID mice. How it is done: BxPC-3 is a gemcitabine resistant call line. […] Gemcitabine was administered intravenously every three days at a dose of 100 mg/kg. Antitumour activities were estimated by the inhibition of tumour volume, which was measured with caliper. Each point represents mean tumour volume calculated from 10 animals per experimental group. […] Hela S3 is a hydroxyurea resistant cell line. […] Hydroxyurea was administered intraperitoneally every day at a dose of 250 mg/kg for 10 days. Cisplatin was administered intravenously once a week for three weeks at a dose of 4 mg/kg. Antitumour activities were estimated by the inhibition of tumour volume, which was measured with caliper. Each point represents mean tumour volume calculated from 10 animals per experimental group. […] Cisplatin was administered intravenously once a week for three weeks at a dose of 4 mg/kg. Taxol was administered intravenously once a week for three weeks at a dose of 10 mg/kg. Antitumour activities were estimated by the inhibition of tumour volume, which was measured with caliper. Each point represents mean tumour volume calculated from 10 animals per experimental group. […] Taxol was administered i.p. once a week at a dose of 10 mg/kg. Antitumour activities were estimated by the inhibition of tumour volume (FIG. 12A), which was measured with calipers. Each point represents mean tumour volume calculated from 10 animals per experimental group. Animals were sacrificed and tumour weights taken at the end of the study (FIG. 12C). […] The effects of combined treatment were greater than either treatment alone. […] Cisplatin was administered intravenously once a week for four weeks at a dose of 4 mg/kg. Taxol was administered intravenously once a week for four weeks at a dose of 20 mg/kg. Antitumour activities were estimated by the inhibition of tumour volume, which was measured with caliper. Each point represents mean tumour volume calculated from 9-10 animals per experimental group. […] Cisplatin was administered intravenously once a week for four weeks at a dose of 4 mg/kg. Antitumour activities were estimated by the inhibition of tumour volume, which was measured with caliper. Each point represents mean tumour volume calculated from 10 animals per experimental group. At the end of the study the animals were sacrificed and tumours weighed. […] Taxol was administered i.p. once a week at a dose of 10 mg/kg. Anti-tumour activity was estimated by the inhibition of tumour volume, which was measured with caliper. Each point represents mean tumour volume calculated from 10 animals per experimental group. In addition animals were sacrificed and tumour weights taken at the end of the study. […] CPT-11 was administered i.p. for 5 days at a dose of 20 mg/kg/day. Antitumour activities were estimated by the inhibition of tumour volume, which was measured with caliper. Each point represents mean tumour volume calculated from 10 animals per experimental group. Tumour weights were measured after animals were sacrificed at the end of the treatment. These cells are not resistant to CPT-11 which was used as a positive control.

Turning to “5′-GGCTAAATCGCTCCACCAAG-3′ (all phosphorothioate, sugars by position and methylation of C not given here) [SEQ ID NO: 1, fully phosphorothioated antisense oligonucleotide that hybridizes to the coding region of R2 mRNA]”, the “Inhibitory effect on tumour growth (tumour volume, FIG. 21B)” value in data set [1] (A498, SCID mice, 10 mg/kg i.v. every other day to day 52) is “powerful inhibitory effects on the growth of human renal carcinoma cells, resulting in total regression of the tumours”. The Tumour regression result in data set [1] (Human Renal Carcinoma^2 (third entry of Table 5)) is reported as “Complete regression of all tumours in treated”. The “Anti-tumour effect (FIG. 32)” value in data set [2] is “effectively treated; also recorded: equivalent in extent and kinetics to that obtained in the SCID mouse model; also recorded: anti-tumour activity is specific to the R2 complementary sequence”. In data set [3] (Hela S3 (cervix), hydroxyurea resistant, SCID, SEQ ID NO:1 10 mg/kg i.v. every other day 6 times, Hydroxyurea 250 mg/kg i.p. daily 10 days, Cisplatin 4 mg/kg i.v. weekly x3), the “Tumour weight as % of saline control” value is given as 24%. Moreover, the “Antitumour effect (tumour volume, FIG. 10)” value in data set [3] (Hela S3 hydroxyurea resistant, SCID mice, SEQ ID NO:1 10 mg/kg i.v. every other day, Hydroxyurea 250 mg/kg i.p. daily, Cisplatin 4 mg/kg i.v. weekly) is “significant delay of tumour growth compared to saline control; also recorded: superior to the inhibitory effects observed with Cisplatin alone”.
